These results are taken from US11254644B2, “Inhibitors of alpha-amino-beta-carboxymuconic acid semialdehyde decarboxylase” (TES Pharma S.r.l., priority 2014, dated 2022).

Structures are written as SMILES.

For the first test, the system named is Caspase 3/7 activity in MDCK cells. Kind of test: Modulation of cisplatin-induced caspase 3/7 activity in MDCK cells. Type of test: cell-based. As to conditions: 100 μM, in combination with cisplatin; p<0.001. As to the method: MDCK cells are cultured in base medium to a final concentration of 10%. Cells are plated into 96 wells and 24 hours after cell plating the medium is changed with fresh medium supplemented with 1% FBS. Cisplatin is then used to induce cell injury. Different concentrations of Formula (I), Formula (Ia), Formula (Ib), Formula (II), or Formula (III), or a pharmaceutically acceptable salt thereof (in DMSO) are added in combination with cisplatin or prior to adding cisplatin. Caspase 3/7 activity (Promega) is determined according to standard procedures using a luminescent signal readout on a plate reader. Each experiment/condition is performed in triplicate. Caspase activity is analyzed as percentage effect normalized to the cisplatin alone and vehicle treated cells.
MDCK cells (MDCK (NBL-2) ATCC® CCL-34™) were cultured in base medium ATCC-formulated Eagle's Minimum Essential Medium, Catalog No. 30-2003 with fetal bovine serum (FBS) to a final concentration of 10%. […]
Caspase 3/7 activity (Promega) was determined according to standard procedures using a luminescent signal readout on a Victor V plate reader (PerkinElmer). […]
Caspase activity was analyzed as percentage effect normalized to the cisplatin alone (100%) and vehicle treated cells as 0% of caspase activity. Data were analyzed by GraphPad Software. […]
In the case of `N#Cc1c(-c2cccs2)nc(SCc2cccc(CC(=O)O)c2)[nH]c1=O` [Compound 18], the “caspase activity compared to cisplatin alone” value was “decreased caspase activity in significant manner”.

Still in this test, the particulars now being: about 30 μM to about 125 μM, one hour prior to cisplatin; p<0.001.
For `N#Cc1c(-c2cccs2)nc(SCc2cccc(CC(=O)O)c2)[nH]c1=O` [Compound 18], the “caspase activity compared to cisplatin alone” value was “decreased caspase activity in significant manner”.

A further test deals with human primary hepatocytes. The test is described as follows: NAD+ content in human primary hepatocytes (LCMS/MS). Format: cell-based. As to conditions: 0.5 μM and 5 μM; compound replaced every 24 hrs. The protocol:
Primary hepatocytes are treated with different concentrations of a compound of Formula (I), Formula (Ia), Formula (Ib), Formula (II), or Formula (III), or a pharmaceutically acceptable salt thereof, or MEHP (control) after seeding. The compound is replaced every 24 hours, and then cells are directly harvested and lysed to detect NAD^+ content through LC MS/MS (liquid chromatography mass spectrometry/mass spectroscopy).
The NAD^+ concentration or content was determined in human primary hepatocytes treated with Compound 4. Vehicle (NT) was used as a control.
At least three experiments were run treating primary hepatocytes with different concentrations of Compound 4 (0.5 μM and 5 μM) after 48 hrs from seeding. Compound 4 was replaced every 24 hrs, and then cells were directly harvested and lysed with ACN/H2O (ratio 5:1). LCMS/MS was used to detect and measure NAD^+ concentration/content. […] (FIG. 1)
The NAD^+ concentration or content was determined in human primary hepatocytes treated with Compound 1 and MEHP, a known ACMSD inhibitor. MEHP was used as a control.
At least three experiments were run treating primary hepatocytes with different concentrations of Compound 1 (0.5 μM, 5 μM, and 50 μM) after 48 hrs from seeding. Compound 1 was replaced every 24 hrs, and then cells were directly harvested and lysed with ACN/H2O (ratio 5:1). […]
For `N#Cc1c(-c2cccs2)nc(SCc2cccc(C(=O)O)c2)[nH]c1=O` [Compound 4], the “ACMSD-1 inhibition, NAD+ content screening (FIG. 1)” value is listed as “inhibits ACMSD-1 enzyme”.

The next test deals with hACMSD (ACMSD1) (Homo sapiens (Human), UniProt Q8TDX5). Kind of test: Determination of ACMSD1 inhibition, spectrophotometrical in vitro assay. As to conditions: HAA concentration of 10 μM. Type of test: biochemical. The protocol: The activity of compounds as inhibitors of ACMSD1 is determined in a spectrophotometrical in vitro assay. The pre-assay mixture is incubated and a compound of Formula (I), Formula (Ia), Formula (Ib), Formula (II), or Formula (III), or a pharmaceutically acceptable salt thereof, and ACMSD1 solution is then added. The effect of ACMS concentration on the enzyme activity is investigated by varying 3-hydroxyanthranilic acid (3OH-HA) concentration in the pre-assay mixture. Kinetic parameters are calculated from the initial velocity data using a Lineweaver-Burk plot.
hACMSD (ACMSD1), sequence (Q8TDX5 whole entry): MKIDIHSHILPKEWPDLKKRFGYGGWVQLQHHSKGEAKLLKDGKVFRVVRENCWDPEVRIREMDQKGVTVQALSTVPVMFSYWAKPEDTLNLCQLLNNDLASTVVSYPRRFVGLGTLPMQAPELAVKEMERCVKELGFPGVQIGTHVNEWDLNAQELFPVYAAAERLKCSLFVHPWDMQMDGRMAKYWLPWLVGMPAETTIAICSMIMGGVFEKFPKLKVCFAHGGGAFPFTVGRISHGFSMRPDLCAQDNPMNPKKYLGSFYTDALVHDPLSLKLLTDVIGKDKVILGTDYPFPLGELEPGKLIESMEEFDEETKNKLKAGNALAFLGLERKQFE
The activity of compounds 1-19 and 21-23 as inhibitors of ACMSD1 was determined by measuring the conversion of 3OH-Anthranilic Acid into product (i.e., ACMS) in a spectrophotometrical in vitro assay.
The pre-assay mixture consisting of 3-hydroxyanthranilic acid (3OH-HA), 3-hydroxyanthranilic acid, 3,4-diOxygenase (HAO), and a dialyzed crude extract of E. coli BL21 (DE3) cells expressing the recombinant enzyme, was incubated at 25° C. with monitoring of the increase in absorbance at 360 nm due to the formation of ACMS from 3OH-HA. After the reaction was completed within ˜2 mins, an aliquot of ACMSD1 solution (prepared and purified from Pichia Pastoris overexpressing the recombinant enzyme) was added, and the decrease in absorbance at 360 nm was followed at 15 second intervals. The effect of ACMS concentration on the enzyme activity was investigated by varying 3OH-HA concentration from 2 to 20 μM. Kinetic parameters were calculated from the initial velocity data by using the Lineweaver-Burk plot.
The rate of the decrease in absorbance caused by ACMSD1 was calculated by subtracting that of the control reaction mixture without ACMSD from that described above. One unit of ACMSD activity was indicated as the amount of enzyme that converts 1 mmol of ACMS per minute at 25° C. The absence or a reduction of ACMSD1 activity (e.g., by using ACMSD inhibitors) results in a slow ACMS-spontaneous degradation (i.e., cyclization to form quinolic acid).
The enzymatic activity was determined at a HAA concentration of 10 μM in the presence of the compounds in Table 1 below. The compounds were tested at the concentration of about 5 μM and 10 μM and the IC50 was calculated for compounds showing inhibitory activity higher than 50%.
Compound `N#Cc1c(-c2ccco2)nc(SCc2cccc(C(=O)O)c2)[nH]c1=O` [Compound 2] registered an IC50 of 66 nM.
The same measure, in the same setting: then `N#Cc1c(-c2ccsc2)nc(SCc2cccc(C(=O)O)c2)[nH]c1=O` [Compound 3], with 31 nM.
With `N#Cc1c(-c2cccs2)nc(SCc2cccc(C(=O)O)c2)[nH]c1=O` [Compound 4], half-maximal inhibition (IC50) was put at 12 nM.
On the same count and under the same terms, then `N#Cc1c(-c2nccs2)nc(SCc2cccc(C(=O)O)c2)[nH]c1=O` [Compound 5], with 49 nM; and `N#Cc1c(C2CCCCC2)nc(SCc2cccc(C(=O)O)c2)[nH]c1=O` [Compound 6], with 77 nM; and `N#Cc1c(-c2ccncc2)nc(SCc2cccc(C(=O)O)c2)[nH]c1=O` [Compound 7], with 82 nM.
`N#Cc1c(-c2ccc(Cl)cc2)nc(SCc2ccc(C(=O)O)cc2)[nH]c1=O` [Compound 8]: inhibition was half-maximal at 82 nM (IC50).
On to `CCOC(=O)c1cccc(CSc2nc(-c3ccc(C)cc3)c(C#N)c(=O)[nH]2)c1` [Compound 9], for which the concentration for half-maximal inhibition (IC50) is 960 nM.
Still for that read-out and setting: with `Cc1nc(SCc2cccc(C(=O)O)c2)[nH]c(=O)c1C#N` [Compound 10] the figure was 1700 nM; with `O=C(O)c1cccc(CSc2nc(-c3ccccc3)c(Br)c(=O)[nH]2)c1` [Compound 11], 71 nM.
Same read-out and setting: then `O=C(O)c1cccc(CSc2nc(-c3cccs3)c(Br)c(=O)[nH]2)c1` [Compound 12], with 88 nM.
The same measure, in the same setting: with `O=C(O)c1cccc(CSc2nc(-c3ccccc3)c(Cl)c(=O)[nH]2)c1` [Compound 13] the figure was 136 nM.
The compound `O=C(O)c1cccc(CSc2nc(-c3ccccc3)cc(=O)[nH]2)c1` [Compound 14] gave a half-maximal inhibitory concentration (IC50) of 740 nM.
Consider `O=C(O)c1cccc(CSc2nc(-c3cccs3)cc(=O)[nH]2)c1` [Compound 15], for which the half-inhibitory concentration (IC50) is 760 nM.
On the same count and under the same terms, with `N#Cc1c(-c2ccccc2)nc(SCc2ccc(C(=O)O)cc2)[nH]c1=O` [Compound 16] the figure was 110 nM.
The same measure, in the same setting: then `N#Cc1c(-c2cccs2)nc(SCc2cccc(CC(=O)O)c2)[nH]c1=O` [Compound 18], with 10 nM.
On the same count and under the same terms, with `N#Cc1c(-c2cccs2)nc(SCc2cccc(-c3noc(=O)[nH]3)c2)[nH]c1=O` [Compound 19] the figure was 25 nM; with `CC(Sc1nc(-c2ccccc2)c(C#N)c(=O)[nH]1)C(=O)O` (centres unmarked) [Compound 21], 1990 nM.
`N#Cc1c(Cl)nc(SCc2cccc(C(=O)O)c2)nc1-c1ccccc1` [Compound 22] came in with an IC50 of 1100 nM.
Same read-out and setting: then `N#Cc1c(-c2cccs2)nc(SCC(=O)Nc2ccccc2O)[nH]c1=O` [Compound 23], with 4900 nM.

One may read the IC50 as the concentration that gives 50% inhibition. Low values mean inhibition by little substance, high ones a need for much substance.
